This passage reports EC50, IC50 and outcome results from PubChem BioAssay AID179 (DTP/NCI, 2004).

Activity calls are given as the source filed them.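 The calls were made as follows: active = compounds giving half or more protection of infected cells from virus-caused growth loss, again on retest; inactive = the rest.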 A value given as a limit tells only on which side of the number the result lay.

This assay relates to CEM cells HIV-1 protection, formazan growth assay. Nature of the assay: NCI AIDS Antiviral Assay. Conditions: for IC50: measured here: growth of uninfected CEM cells. An outline of the steps: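 Soluble formazan readout of cell growth; CEM cells ± HIV-1; 5 drug concs. ≥50% protection → retest; ≥50% again = moderately active; reproducible 100% = confirmed active.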

Broadly, the EC50 is the concentration needed to bring the measured effect to its halfway point. Broadly, the IC50 is the concentration that gives 50% inhibition.

On to `COc1ccc(Nc2cc[nH]c(=O)c2NC(C)=O)cc1`, for which the EC50 was more than 479 µM and the concentration for half-maximal inhibition (IC50) is more than 479 µM. Take `C/C(=N\NC(=S)N/N=C(\C)c1ccccn1)c1ccccn1`: the EC50 was more than 200 µM and the IC50 came to 1.32 µM.

On to `O=C(O)c1ccc(CS(=O)(=O)c2ccccc2C(=O)O)c([N+](=O)[O-])c1`, for which the EC50 was more than 692 µM and the IC50 was more than 692 µM. On to `Cc1cccc(C)c1Nc1nc(C)c(C(=O)CC(=O)C(=O)Nc2c(C(C)C)cccc2C(C)C)s1`, for which the EC50 was more than 200 µM and the IC50 is more than 200 µM. For `CC(=O)c1cc2ccccc2n(O)c1=N`, the EC50 is more than 200 µM and the IC50 was more than 200 µM. For `Cc1nc2cnc(Nc3ccccc3)nc2n(-c2ccccc2)c1=O`, the EC50 is more than 200 µM and the IC50 is more than 200 µM. For the compound `Oc1ccccc1-c1n[nH]c(=S)n1/N=C/c1ccc(-c2ccc(Br)cc2)o1`, the EC50 is more than 42.7 µM and the IC50 was more than 42.7 µM. Turning to `COC(=O)C1C(OC(=O)c2ccccc2)CC2CCC1N2C(N)=O` (stereo not drawn), the EC50 is more than 200 µM and the 50% inhibitory concentration (IC50) was more than 200 µM. `CO/N=C1\CC(NC(=O)C(F)(F)F)c2ccsc21` (stereo not drawn): the EC50 is more than 200 µM and the IC50 was more than 200 µM. As to `CSc1c(C#N)c(S)n(-c2ccc(Cl)cc2)c(=O)c1C#N`, the EC50 is more than 200 µM and the IC50 was 52.5 µM.

For `C=C1CC[C@]2(C)C3CC[C@]4(C)C(C(C)CCC(=O)OC)CCC4[C@@H]3CC[C@@H]2C1` (stereo partly drawn), the EC50 is more than 87.1 µM and the IC50 is more than 87.1 µM.

In the case of `Nc1nc[n+](Cc2ccccc2)c2ncn(Cc3ccccc3)c12`, the EC50 is more than 631 µM and the IC50 came to 95.5 µM. As for `CCOC(=O)CCC1(C)OCC(COC)O1` (stereo not drawn), the EC50 was more than 200 µM and the IC50 was more than 200 µM. Regarding `CN(C)CC1CCC/C1=N\O` (stereo not drawn), the EC50 is more than 1580 µM and the IC50 was determined as 1380 µM. Regarding `C[C@]12CC[C@H](OC(=O)Cc3ccc(N(CCCl)CCCl)cc3)CC1CC[C@@H]1C2CC[C@]2(C)NC(=O)CCC12` (stereo partly drawn), the EC50 was more than 17.8 µM and the IC50 was found to be 2.95 µM.

In the case of `O=C1NC(=O)C23C(=O)NC(=O)C12C1C=CC3CC1` (stereo not drawn), the EC50 is more than 200 µM and the IC50 was more than 200 µM. For `COc1cc2c(cc1O)CN1Cc3c(ccc(OC)c3O)C2C1` (stereo not drawn), the EC50 was more than 282 µM and the IC50 turned out to be 251 µM. As to `Cn1c2ccc(Cl)cc2c2ccc3c(c21)C(=O)C=CC3=O`, the EC50 is more than 100 µM and the IC50 stood at 12.9 µM. Taken in the same sequence, the figures for `Cc1cc2c(c(=O)n1C)SCC2` were more than 200 µM and more than 200 µM. As to `COc1cc2c(cc1OC)CCc1cc(OC)c(OC)cc1CC2`, the EC50 was more than 200 µM and the IC50 turned out to be 89.1 µM. For `CC1(C)CCCC(C)(C2CCC3(C)C2C(O)CC2C4(C)CCC(O)C(C)(C)C4C(O)CC23C)O1` (stereo not drawn), the outcome was inactive. Regarding `C[C@]12CC[C@@H]3c4cc(OCC(F)(F)F)c(O)cc4/C(=N/O)C[C@H]3[C@@H]1CC[C@@H]2O`, the EC50 is more than 0.2 µM and the IC50 stood at 0.0933 µM. Taken in the same sequence, the figures for `CC(C)(C)[Si](C)(C)OC[C@H](CO)NC(=O)OCc1ccccc1` were more than 200 µM and 38.9 µM. In the same order, the values of `CCOc1ccc(N2CC(=O)N3CCCCN3C(=O)C2)cc1` are more than 200 µM and more than 200 µM.

Turning to `CCCCc1ccc(Nc2nc(Cl)c3[nH]cnc3n2)cc1`, the EC50 is more than 200 µM and the IC50 was 26.3 µM. Taken in the same sequence, the figures for `O=c1[nH]c(=O)n(C2OC(CO)C(O)C2O)cc1F` (stereo not drawn) were more than 20 µM and 0.00631 µM. In the same order, the values of `CC(C)(C)OC(=O)CN1CCNCCNCC1` are more than 100 µM and more than 100 µM. On to `C(=N/N=C(N/N=C/C1CNCCN1)N/N=C/C1CNCCN1)/C1CNCCN1` (stereo not drawn), for which the EC50 was more than 631 µM and the IC50 is more than 631 µM.

For `O=c1[nH]c2ccccc2c(=O)n1/N=C\c1ccc([N+](=O)[O-])cc1`, the EC50 was more than 200 µM and the IC50 was more than 200 µM. As for `COc1ccc(P2(=S)Oc3ccc(C(c4ccccc4)(c4ccccc4)c4ccccc4)cc3O2)cc1` (stereo not drawn), the outcome was inactive. `Nc1ncnc2c1ncn2C1CCC(COP(=O)(O)O)O1` (stereo not drawn): the EC50 is 20 µM and the IC50 was more than 200 µM. For the compound `COc1cc2c(cc1OC)C1C=NC(C(=O)O)(C2)c2ccccc21` (stereo not drawn), the outcome was inactive. Same read-out and setting: the value for `COc1cc2c(cc1O)C1C(O)C(O)C=C3CCN(C2)C31` (stereo not drawn) was “inactive”.

In the case of `Cc1ccc(Sc2ccccc2N)cc1`, the EC50 was more than 178 µM and the IC50 was found to be 51.3 µM. Take `COc1cc(C)cc2c1C(=O)C(Br)=CC2=O`: the EC50 was more than 200 µM and the 50% inhibitory concentration (IC50) stood at 1.95 µM. Taken in the same sequence, the figures for `O=C(CC(=O)N1N=C(N(c2ccccc2)c2ccccc2)CC1c1ccccc1)Nc1cccc(Cl)c1` (stereo not drawn) were 25.1 µM and more than 200 µM. Taken in the same sequence, the figures for `Cc1cc(=O)c2c(=O)oc3c4ccccc4ccc3c2o1` were more than 200 µM and 105 µM. In the case of `O=c1[nH]c2c(nc1NC13CC4CC(CC(C4)C1)C3)c(=O)oc1ccccc12`, the EC50 was more than 2 µM and the IC50 was more than 2 µM.

In the case of `Cc1nn(C(=O)c2ccncc2)c2c1C(c1cccc([N+](=O)[O-])c1)SC(N)=N2` (stereo not drawn), the result was inactive. The same measure, in the same setting: the value for `CC(=O)NC(C)(C)C` was “inactive”; that for `CN1NC2(CCCCC2)ON=C1c1ccccc1` was “inactive”. On to `COc1cc(Nc2cc(Cl)cc(Cl)c2)nc(N)n1`, for which the EC50 is more than 200 µM and the IC50 worked out at 27.5 µM.

Take `COC(=O)c1cc(C(=O)OC)c(C/C(=N/NC(N)=S)C(=O)Nc2ccc(Cl)c(Cl)c2)nc1C/C(=N/NC(N)=S)C(=O)Nc1ccc(Cl)c(Cl)c1`: the EC50 was more than 200 µM and the IC50 is more than 200 µM. On to `COc1ccc(S(=O)(=O)NNS(C)(=O)=O)cc1`, for which the EC50 is more than 447 µM and the half-maximal inhibitory concentration (IC50) turned out to be 87.1 µM. With `COc1cc(C)cc2c1C(=O)C(Br)CC2` (stereo not drawn), the result was inactive. `CN1C(=O)CCCCCCCCCCSc2ccccc21`: the EC50 was more than 200 µM and the IC50 was found to be 40.7 µM. As for `COC(=O)c1cc(C(=O)OC)c(CC(=O)C(=O)Nc2ccc(Cl)c(C(F)(F)F)c2)nc1CC(=O)C(=O)Nc1ccc(Cl)c(C(F)(F)F)c1`, the EC50 was more than 200 µM and the IC50 was 148 µM.

Turning to `CC1=NNC(=O)C1C1CC(c2c[nH]c3ccccc23)=NN(C(N)=O)C1=O` (stereo not drawn), the EC50 is more than 200 µM and the IC50 was more than 100 µM. In the case of `CC(=O)OCC1=C(CCC#N)N2C(=O)C(NC(=O)Cc3cccs3)C2S(=O)C1` (stereo not drawn), the EC50 is more than 200 µM and the IC50 is 95.5 µM. In the same order, the values of `CCOC(=O)CCC(NC(=O)c1ccc(Nc2nc3cc(C(F)(F)F)ccc3nc2C(=O)OCC)cc1)C(=O)OCC` (stereo not drawn) are more than 191 µM and 4.57 µM. Take `CC1=Cc2cc3[n-]c(cc4nc(cc5[n-]c(cc1n2)c(C)c5CCC(=O)O)C(CCC(=O)O)=C4C)cc3C.[Cu+2]`: the EC50 was more than 8.71 µM and the IC50 was 7.59 µM. In the same order, the values of `COc1ccc(-c2coc3c(OC)c(OC)c(OC)c(OC)c3c2=O)cc1` are more than 200 µM and 44.7 µM.

Regarding `Cc1ccc(S(=O)(=O)N/N=C(\c2nc3ccc([N+](=O)[O-])cc3[nH]c2=O)C(O)c2ccccc2Cl)cc1` (stereo not drawn), the outcome was inactive.

Take `CC1=C(C(=O)Nc2ccccc2C)C(c2ccc([N+](=O)[O-])cc2)C(C(=O)Nc2ccccc2C)=C(C)N1`: the EC50 is more than 10.5 µM and the IC50 was more than 10.5 µM. On to `N#CCCN(CCC#N)c1ccc(/C=C2/N=C(COc3ccccc3)N(c3ccc(Cl)cc3)C2=O)cc1`, for which the EC50 was more than 37.2 µM and the IC50 was more than 37.2 µM. On to `COCn1cnc2c(=O)n(-c3ccc(C)cc3)c(=S)n(-c3ccc(C)cc3)c21`, for which the EC50 is more than 200 µM and the 50% inhibitory concentration (IC50) worked out at 138 µM. Taken in the same sequence, the figures for `CCOP(=O)(OCC)C(F)(F)CC1CCCCC1` were more than 200 µM and 170 µM. Taken in the same sequence, the figures for `CCOC(=O)N1C2c3ccccc3C(c3ccccc32)N1C(=O)OCC` were more than 56.2 µM and more than 56.2 µM.

Consider `O=[N+]([O-])c1ccccc1S(=O)(=O)Cc1ccccc1`, for which the EC50 is more than 245 µM and the IC50 was more than 245 µM. Consider `CC(=N/N=C/c1ccccn1)/C(C)=N/N=C(C)/C(C)=N/N=C(C)/C(C)=N/N=C(C)/C(C)=N\N=C\c1ccccn1`, for which the result was inactive. `CC(CC(C)[C@H]1CCC2[C@H]3C(CC(=O)[C@@]21C)[C@@]1(C)CCC(O)C[C@H]1C[C@@H]3O)C(=O)O` (stereo partly drawn): the EC50 was more than 200 µM and the IC50 was determined as 162 µM. Taken in the same sequence, the figures for `COc1ccc(C(C)NNC(=O)c2ccncc2)c(OC)c1` (stereo not drawn) were more than 200 µM and 29.5 µM. On to `COc1ccccc1/C=C1\Sc2scc(-c3ccc(O)c(O)c3)[n+]2C1=O`, for which the EC50 is more than 200 µM and the IC50 was 3.89 µM. As for `COc1ccc(/C=C/C(=O)c2c(OC)cc(OC)c(OC)c2O)cc1`, the outcome was inactive. Regarding `CC(=O)OCc1cccc(O)c1C(=O)CCC=C(C)C`, the EC50 was more than 200 µM and the IC50 was determined as 148 µM. With `Cc1ccc(/C=C2\CCC/C(=C\c3ccc(O)c(CN4CCCCC4)c3)C2=O)cc1`, the EC50 is more than 100 µM. As for `Clc1ccc(CNc2nc(Cl)c3[nH]cnc3n2)cc1Cl`, the EC50 was more than 200 µM and the IC50 stood at 22.9 µM. In the same order, the values of `CC1(c2ccc(F)cc2)C(C#N)C(=O)NC(=O)C1C#N` (stereo not drawn) are more than 912 µM and 170 µM. `O=[N+]([O-])c1cc(Cl)c(O)c(N=Nc2cc(S(=O)(=O)O)c3cccc4c3c2N=NN4)c1`: the EC50 was more than 91.2 µM and the IC50 came out at 51.3 µM. In the case of `CCOC(=O)c1c2cccccc2n2c(=O)cc(C)nc12`, the result was inactive. In the case of `CC1C2CC(C/C2=N/O)C1(C)C` (stereo not drawn), the EC50 was more than 1480 µM and the IC50 came out at 437 µM. As to `COC(NC(=O)Nc1ccc(C)cc1)(C(F)(F)F)C(F)(F)F`, the EC50 is more than 200 µM and the concentration for half-maximal inhibition (IC50) is 27.5 µM.

As for `NC(N)=NCCCC(N)C(=O)O` (stereo not drawn), the EC50 was more than 200 µM and the IC50 is more than 200 µM.
